Among the data in ChEMBL document CHEMBL1142677, “Synthesis, antitumor evaluation, and apoptosis-inducing activity of hydroxylated (E)-stilbenes” (2005) are GI50 and Apoptosis values, retold here.

As a reminder, the GI50 is the concentration that inhibits growth by half.

Test [1] can be described thus: In vitro growth inhibitory concentration against human mammary carcinoma cell line MDA MB 468 using MTT assay. Type of test: functional. (In general: Tetrazolium dyes change colour on reduction, which living cells bring about.)
The nature of test [2]: Percent of apoptosis in MDA MB 468 Cell line determined by Annexin-V-FITC/PI analysis at 10 uM. Type of test: functional, Homo sapiens.
A short description of test [3]: Percent of apoptosis in MDA MB 468 Cell line determined by Annexin-V-FITC/PI analysis at 250 nM. Format: functional, Homo sapiens.
Test [4] is described as follows: In vitro growth inhibitory concentration against human mammary carcinoma cell line MDA MB 468. Format: functional.
A further test has as its system HCT-116. The experiment in a line: In vitro growth inhibitory concentration against human colon cancer cell line HCT 116. Format: functional.

In test [1], `COc1cc(/C=C/c2cccc(O)c2)cc(OC)c1` showed a 50% growth inhibitory concentration (GI50) of 960 nM.
The same measure, in the same setting: next, `Oc1ccccc1/C=C/c1ccc(F)c(F)c1`: 1100 nM.
For `Oc1cccc(/C=C/c2ccc(F)c(F)c2)c1`, it took 1600 nM to inhibit growth in test [1] by half (GI50). The GI50 values of the last two compounds are within 1.5-fold of each other.
In turn, `COc1ccccc1/C=C/c1cccc(O)c1` showed an Apoptosis in test [2] of 20%.
Consider `Oc1cccc(/C=C/c2ccccc2F)c1`, for which, in test [1], the 50% growth inhibitory concentration (GI50) was determined as 1400 nM.
In turn, `CC[C@@]1(O)C(=O)OCc2c1cc1n(c2=O)Cc2cc3ccccc3nc2-1` [CAMPTOTHECIN] gave an Apoptosis in test [3] of 37%.
As to `Oc1ccc(/C=C/c2cc(O)cc(O)c2)cc1` [RESVERATROL], the GI50 (in test [4]; with HCT-116) was above 40000 nM each time. Moreover, the Apoptosis in test [2] worked out at 4%.
